Test results published in article PMC7206119, “RIP1 inhibition blocks inflammatory diseases but not tumor growth or metastases” (Cell Death and Differentiation, 2019).

How the values were obtained:
Experiment in all cases: biochemical
Set-up in all cases: DiscoverX kinase panel, active-site competition binding (KINOMEscan type), percent of control at one concentration
Conditions in all cases: competition binding, percent of control
KIT = KIT (Homo sapiens, UniProt P10721)
MEK3 = biological target: T1, MEK3 (Homo sapiens, UniProt P46734)
T1 construct: gene MAP2K3

CAMK2A = CAMK2A (Homo sapiens, UniProt Q9UQM7)
RET = RET (Homo sapiens, UniProt P07949)
BRSK1 = BRSK1 (Homo sapiens, UniProt Q8TDC3)
FGFR3(G697C) = FGFR3(G697C) (Homo sapiens, UniProt P22607, G697C)
RIOK1 = RIOK1 (Homo sapiens, UniProt Q9BRS2)
[1] = biological target: T2, TYK2(JH1domain-catalytic) (Homo sapiens, UniProt P29597)
T2 construct: JH1domain-catalytic

PIK3C2G = PIK3C2G (Homo sapiens, UniProt O75747)
ACVR1 = ACVR1 (Homo sapiens, UniProt Q04771)
GCN2(Kin.Dom.2,S808G) = biological target: T3, GCN2(Kin.Dom.2,S808G) (Homo sapiens, UniProt Q9P2K8, S808G)
T3 construct: gene EIF2AK4; Kin.Dom.2

MARK4 = MARK4 (Homo sapiens, UniProt Q96L34)
EPHA8 = EPHA8 (Homo sapiens, UniProt P29322)
BMPR2 = BMPR2 (Homo sapiens, UniProt Q13873)
TXK = TXK (Homo sapiens, UniProt P42681)
SRPK3 = SRPK3 (Homo sapiens, UniProt Q9UPE1)
CDK4-cyclinD1 = biological target: T4, CDK4-cyclinD1 (Homo sapiens, UniProt P11802)
T4 construct: cyclinD1

SIK2 = SIK2 (Homo sapiens, UniProt Q9H0K1)
BIKE = biological target: T5, BIKE (Homo sapiens, UniProt Q9NSY1)
T5 construct: gene BMP2K

EPHA2 = EPHA2 (Homo sapiens, UniProt P29317)
CAMKK1 = CAMKK1 (Homo sapiens, UniProt Q8N5S9)

Chain of SIK2 (Q9H0K1 whole entry): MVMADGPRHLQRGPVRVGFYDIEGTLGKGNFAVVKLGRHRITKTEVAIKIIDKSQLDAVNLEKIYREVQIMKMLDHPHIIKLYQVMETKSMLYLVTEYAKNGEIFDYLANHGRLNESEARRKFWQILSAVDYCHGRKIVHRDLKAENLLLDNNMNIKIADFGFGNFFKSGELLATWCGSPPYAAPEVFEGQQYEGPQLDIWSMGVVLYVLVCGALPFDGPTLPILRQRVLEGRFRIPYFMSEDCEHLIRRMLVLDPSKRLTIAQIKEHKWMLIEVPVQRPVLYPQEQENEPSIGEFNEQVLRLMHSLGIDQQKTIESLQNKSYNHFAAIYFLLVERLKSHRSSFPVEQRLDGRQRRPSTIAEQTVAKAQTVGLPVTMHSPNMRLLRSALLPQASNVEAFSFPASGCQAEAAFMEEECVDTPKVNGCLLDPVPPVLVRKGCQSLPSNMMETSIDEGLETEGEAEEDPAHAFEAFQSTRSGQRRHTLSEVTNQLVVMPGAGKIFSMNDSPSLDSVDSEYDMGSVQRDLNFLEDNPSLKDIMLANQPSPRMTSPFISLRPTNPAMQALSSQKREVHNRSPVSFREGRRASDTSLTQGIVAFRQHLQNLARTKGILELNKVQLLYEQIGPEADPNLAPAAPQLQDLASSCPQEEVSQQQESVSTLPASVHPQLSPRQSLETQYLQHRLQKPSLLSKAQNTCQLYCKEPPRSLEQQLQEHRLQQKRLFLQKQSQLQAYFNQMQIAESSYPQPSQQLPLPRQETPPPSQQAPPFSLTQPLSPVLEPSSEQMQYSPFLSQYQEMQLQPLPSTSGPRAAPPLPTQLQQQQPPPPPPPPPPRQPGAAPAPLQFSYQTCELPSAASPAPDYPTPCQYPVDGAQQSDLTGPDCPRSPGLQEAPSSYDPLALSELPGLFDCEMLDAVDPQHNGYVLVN
T4 sequence (P11802 whole entry): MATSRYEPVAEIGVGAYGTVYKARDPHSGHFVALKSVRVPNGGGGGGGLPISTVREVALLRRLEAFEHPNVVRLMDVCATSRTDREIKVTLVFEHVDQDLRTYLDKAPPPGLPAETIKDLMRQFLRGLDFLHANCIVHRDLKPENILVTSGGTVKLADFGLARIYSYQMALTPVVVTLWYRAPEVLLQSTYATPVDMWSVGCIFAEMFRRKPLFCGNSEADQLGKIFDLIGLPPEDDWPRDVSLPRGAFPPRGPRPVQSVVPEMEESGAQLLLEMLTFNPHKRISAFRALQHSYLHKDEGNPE
T4 sequence (P24385 whole entry partner): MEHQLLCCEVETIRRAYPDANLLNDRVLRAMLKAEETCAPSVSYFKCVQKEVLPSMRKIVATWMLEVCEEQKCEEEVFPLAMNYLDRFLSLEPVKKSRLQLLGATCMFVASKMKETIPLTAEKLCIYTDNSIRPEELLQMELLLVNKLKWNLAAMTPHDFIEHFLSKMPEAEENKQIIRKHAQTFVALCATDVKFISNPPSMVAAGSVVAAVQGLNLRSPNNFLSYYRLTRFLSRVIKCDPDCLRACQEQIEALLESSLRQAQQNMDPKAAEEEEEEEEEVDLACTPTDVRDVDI
Chain of MARK4 (Q96L34 whole entry): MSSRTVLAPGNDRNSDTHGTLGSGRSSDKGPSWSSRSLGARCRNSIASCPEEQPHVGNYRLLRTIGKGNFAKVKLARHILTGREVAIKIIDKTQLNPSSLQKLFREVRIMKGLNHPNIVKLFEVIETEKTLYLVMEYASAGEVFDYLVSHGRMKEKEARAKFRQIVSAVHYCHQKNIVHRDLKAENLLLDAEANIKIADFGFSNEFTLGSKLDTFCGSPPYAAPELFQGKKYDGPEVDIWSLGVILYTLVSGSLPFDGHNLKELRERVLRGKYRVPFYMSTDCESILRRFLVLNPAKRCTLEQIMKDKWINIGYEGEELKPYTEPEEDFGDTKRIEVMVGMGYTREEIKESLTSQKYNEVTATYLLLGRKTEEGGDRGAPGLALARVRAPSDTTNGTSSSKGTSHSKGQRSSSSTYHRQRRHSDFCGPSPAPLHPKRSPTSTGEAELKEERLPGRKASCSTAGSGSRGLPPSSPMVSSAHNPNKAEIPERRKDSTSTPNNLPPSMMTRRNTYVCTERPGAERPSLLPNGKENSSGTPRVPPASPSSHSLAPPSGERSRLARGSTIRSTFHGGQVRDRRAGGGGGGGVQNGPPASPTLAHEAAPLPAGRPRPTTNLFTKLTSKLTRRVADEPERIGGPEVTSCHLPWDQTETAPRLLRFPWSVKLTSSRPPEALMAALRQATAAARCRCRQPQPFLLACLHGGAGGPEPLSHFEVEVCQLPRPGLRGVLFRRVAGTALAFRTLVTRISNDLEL
Chain of EPHA8 (P29322 whole entry): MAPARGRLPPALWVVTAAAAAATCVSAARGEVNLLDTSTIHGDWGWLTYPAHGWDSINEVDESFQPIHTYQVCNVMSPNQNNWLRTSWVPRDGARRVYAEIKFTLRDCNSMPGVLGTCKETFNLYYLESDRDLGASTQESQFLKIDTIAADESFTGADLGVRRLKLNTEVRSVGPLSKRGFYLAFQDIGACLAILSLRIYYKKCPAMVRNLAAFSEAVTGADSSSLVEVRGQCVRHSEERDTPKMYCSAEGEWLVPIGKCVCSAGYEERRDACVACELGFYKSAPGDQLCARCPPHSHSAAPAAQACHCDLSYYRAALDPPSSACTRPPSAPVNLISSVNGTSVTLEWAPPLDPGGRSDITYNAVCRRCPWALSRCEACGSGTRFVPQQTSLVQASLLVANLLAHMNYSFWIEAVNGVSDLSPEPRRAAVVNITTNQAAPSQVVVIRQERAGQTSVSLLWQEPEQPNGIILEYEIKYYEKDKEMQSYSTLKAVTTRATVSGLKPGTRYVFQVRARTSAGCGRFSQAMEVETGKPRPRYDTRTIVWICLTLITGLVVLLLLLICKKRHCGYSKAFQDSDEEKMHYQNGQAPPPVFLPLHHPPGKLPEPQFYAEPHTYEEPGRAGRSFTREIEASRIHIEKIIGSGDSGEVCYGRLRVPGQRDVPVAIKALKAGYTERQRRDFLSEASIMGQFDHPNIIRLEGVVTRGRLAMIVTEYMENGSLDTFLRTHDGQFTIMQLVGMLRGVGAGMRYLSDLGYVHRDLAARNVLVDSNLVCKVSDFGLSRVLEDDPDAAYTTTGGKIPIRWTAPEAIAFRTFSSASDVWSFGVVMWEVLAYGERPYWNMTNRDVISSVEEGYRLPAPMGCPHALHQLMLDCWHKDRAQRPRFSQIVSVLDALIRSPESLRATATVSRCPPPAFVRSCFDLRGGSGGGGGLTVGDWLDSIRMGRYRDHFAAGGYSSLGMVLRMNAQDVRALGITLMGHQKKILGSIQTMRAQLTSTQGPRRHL
Chain of KIT (P10721 whole entry): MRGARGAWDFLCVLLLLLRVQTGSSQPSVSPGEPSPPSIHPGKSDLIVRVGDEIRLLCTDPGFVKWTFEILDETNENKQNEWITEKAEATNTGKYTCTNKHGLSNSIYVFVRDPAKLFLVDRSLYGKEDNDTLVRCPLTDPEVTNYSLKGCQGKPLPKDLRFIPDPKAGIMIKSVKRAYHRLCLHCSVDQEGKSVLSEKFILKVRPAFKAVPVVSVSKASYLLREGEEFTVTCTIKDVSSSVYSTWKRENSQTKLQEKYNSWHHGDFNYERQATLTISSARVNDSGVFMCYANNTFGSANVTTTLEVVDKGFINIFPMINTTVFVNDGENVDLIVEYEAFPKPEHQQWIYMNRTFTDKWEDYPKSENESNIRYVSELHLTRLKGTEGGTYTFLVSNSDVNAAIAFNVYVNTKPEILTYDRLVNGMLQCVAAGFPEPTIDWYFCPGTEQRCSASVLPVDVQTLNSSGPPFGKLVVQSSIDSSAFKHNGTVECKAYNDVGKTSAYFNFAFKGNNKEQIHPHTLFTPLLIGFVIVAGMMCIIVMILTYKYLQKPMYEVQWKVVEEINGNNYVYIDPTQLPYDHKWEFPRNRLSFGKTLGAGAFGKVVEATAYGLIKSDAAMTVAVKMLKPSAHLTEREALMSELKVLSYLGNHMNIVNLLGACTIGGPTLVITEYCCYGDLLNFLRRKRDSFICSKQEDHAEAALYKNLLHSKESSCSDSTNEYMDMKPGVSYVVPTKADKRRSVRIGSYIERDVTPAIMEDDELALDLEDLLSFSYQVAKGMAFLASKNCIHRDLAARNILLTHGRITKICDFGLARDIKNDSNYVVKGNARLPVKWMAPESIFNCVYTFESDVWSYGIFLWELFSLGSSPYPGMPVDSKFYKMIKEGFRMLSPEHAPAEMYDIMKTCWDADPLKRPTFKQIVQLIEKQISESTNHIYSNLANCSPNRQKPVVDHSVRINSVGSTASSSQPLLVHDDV
Chain of CAMK2A (Q9UQM7 whole entry): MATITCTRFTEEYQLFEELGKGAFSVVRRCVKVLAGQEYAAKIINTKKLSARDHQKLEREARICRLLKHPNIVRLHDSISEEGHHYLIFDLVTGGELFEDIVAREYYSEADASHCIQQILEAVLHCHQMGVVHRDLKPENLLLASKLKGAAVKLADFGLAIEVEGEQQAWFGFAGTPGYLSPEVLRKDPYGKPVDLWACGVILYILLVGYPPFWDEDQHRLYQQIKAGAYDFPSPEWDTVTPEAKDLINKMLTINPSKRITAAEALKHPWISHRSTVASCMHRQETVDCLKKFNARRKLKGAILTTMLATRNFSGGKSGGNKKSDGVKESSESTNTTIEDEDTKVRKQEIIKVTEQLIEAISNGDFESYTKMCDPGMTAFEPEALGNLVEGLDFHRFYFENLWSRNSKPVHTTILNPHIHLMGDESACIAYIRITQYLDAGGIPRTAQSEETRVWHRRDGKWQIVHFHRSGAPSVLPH

COc1cc2c(cn1)N(C)C(=O)[C@@H](NC(=O)c1nc3n(n1)[C@H](c1ccccc1)CC3)CC2 [GNE684, (S)-N-((S)-7-methoxy-1-methyl-2-oxo-2,3,4,5-tetrahydro-1H-pyrido[3,4-b]azepin-3-yl)-5-phenyl-6,7-dihydro-5H-pyrrolo[1,2-b][1,2,4]triazole-2-carboxamide]
remaining binding at 10 µM (KIT): 95%
remaining binding at 10 µM (MEK3): 87%
remaining binding at 10 µM (CAMK2A): 69%
remaining binding at 10 µM (RET): 98%
remaining binding at 10 µM (BRSK1): 100%
remaining binding at 10 µM (FGFR3(G697C)): 88%
remaining binding at 10 µM (RIOK1): 84%
remaining binding at 10 µM [1]: 100%
remaining binding at 10 µM (PIK3C2G): 100%
remaining binding at 10 µM (ACVR1): 100%
remaining binding at 10 µM (GCN2(Kin.Dom.2,S808G)): 100%
remaining binding at 10 µM (MARK4): 60%
remaining binding at 10 µM (EPHA8): 100%
remaining binding at 10 µM (BMPR2): 100%
remaining binding at 10 µM (TXK): 100%
remaining binding at 10 µM (SRPK3): 100%
remaining binding at 10 µM (CDK4-cyclinD1): 87%
remaining binding at 10 µM (SIK2): 98%
remaining binding at 10 µM (BIKE): 100%
remaining binding at 10 µM (EPHA2): 97%
remaining binding at 10 µM (CAMKK1): 99%
